Bridges are numbered along the chain shown (N, C = ends). Where no end group is shown, it is not given here.
Assays:
[1] = test system: BMP-7 induced and basal alkaline phosphatase activity in ROS cells (rat Osteosarcoma 17/2.8); assay: ROS cell based alkaline phosphatase assay; conditions: for IC50: peptide together with BMP-7 (1.33 nM), ROS cells, 2 days, read-out: peptide concentration giving 50% inhibition of cellular responsiveness to BMP-7
Procedure: ROS Cell Based Alkaline Phosphatase Assays: BMP-7 and test agents that bind BMP-7 receptors were analyzed by in vitro bioassay. This assay defines the role of these test agents at the receptor-binding site. It is believed that some of the test agents can effectively interact with receptors and inhibit BMP-7 induced target cell responsiveness, thereby acting as functional antagonists. Alternatively, these agents may mimic BMP-7 functions inducing alkaline phosphatase activity in ROS cells, thus acting as functional agonists. An assay procedure as described by Maliakal, J. C., et al., Growth Factors 11, 227-234, (1994) determined the biological activities of BMP-7 peptides. In a typical experiment, rat Osteosarcoma (17/2.8) cells were plated in 96 well plates (3.0×10^4 cells/well) and incubated overnight at 37 C in 5-6% CO2 incubator. Next day, the plates were examined to make sure that cells are healthy & confluent. Cells were treated with increasing concentrations of BMP-7 standard (1-10,000 ng/ml) or test agents (0.02-200 μM) or appropriate concentrations of test agent alone or with BMP-7 standard prepared in medium containing 1% FBS and incubated for 2 days at 37 C in 5-6% CO2 incubator. The cellular content of alkaline phosphatase activity was determined by the method of Reddi, A. H. & Huggins, C. B. Proc. Natl. Acad. Sci. USA 69, 1601-1605 (1972). Enzyme estimations were routinely carried out in 96 well plates. Following removal of culture medium, cells were washed with pre-warmed PBS (150 μl) and further incubated in 100 μl of pre-warmed 1% Triton X-100 for 30 minutes at 37 C. Plates were centrifuged for 10 minutes at full speed, and recovered samples (each 15 μl) were assayed for enzyme activity by adding 90 μl p-nitrophenyl phosphate (Sigma, St. Louis, Mo.) as a substrate in 0.05 M glycine-NaOH buffer, pH 9.3 and incubating for 20 minutes at 37 C. The reaction was stopped by adding 75 ul of 0.2 N NaOH/well and absorbance at 405/490 nm is measured on a Dynatech MR 700 plate reader (Dynatech Laboratories, U.K.). Results are expressed as concentration of peptide/small molecule inhibitor (with antagonist activity) required to give 50% inhibition of maximum response to BMP-7 standard. The activities of test agents that stimulate cell responsiveness (with agonist activity), are expressed relative to BMP-7 standard.

[2] = test system: BMP-7 receptor-enriched plasma membrane fraction of ROS cells; assay: Radio-ligand receptor assay (displacement of 125I-labeled BMP-7); format: binding, rat
Procedure: Radio-ligand receptor Assay: The receptor-binding activities of various BMP ligands (New York Public Health Labs, Albany, N.Y.) were determined by an equilibrium displacement binding isotherm assay using BMP-7 receptor-enriched plasma membrane fraction of ROS cells (ATCC 17-2.8) and ^125I-labeled BMP-7 (NEN, Billerica, Mass.) as ligand. Purified BMP-7 was radio-iodinated BMP-7 to a specific activity of 70-78 uCi/ug by a modified procedure of lactoperoxidase method (Schneyer, A. L., et al., Endocrinology 119, 1446-1453 (1986)). The percent bindability of radioiodinated BMP-7 to excess receptor is 30-37%. Receptors from ROS cells are obtained by a procedure previously described (Dattatreyamurty, B., et al., (1986) J. Biol. Chem. 261.). […] In a typical assay, fixed amounts of ^125I-labeled sol. BMP-7 (−80.000 cpm) were incubated with a fixed amount of receptor-enriched plasma membrane fraction in the presence (5 ug. for non-specific binding) or absence of excess unlabeled BMP-7 (for total binding). Displacement curves were generated with increasing concentrations of BMP-7 standard preparation (5-2000 ng). The assay incubations were carried out in a reaction volume of 300 μl with shaking for 22 hrs. at 4° C. Bound and unbound ^125I-labeled BMP-7 were separated by centrifugation (30,500×g. 30 minutes). The supernatants were aspirated and pellets washed before counting in a gamma counter (Packard Instr. Downers Grove, Ill.). The concentration of test agent required to give 50% inhibition of total specific binding of ^125I-labeled BMP-7 ^(ED50^) was calculated from competitive data.

[3] = target: T1, ECD of daf-4 receptor (Caenorhabditis elegans, UniProt P50488); assay: Type II receptor-based HTS rapid solid-phase assay; format: binding, C. elegans; conditions: ECD immobilized on PVDF membrane, 18 h, room temperature
T1 construct: 1 includes additional portions on the N and C terminus; made in house; host or cells: transfected DHFR(-) CHO cell line PJ511.9.8, purified from conditioned medium
T1 sequence (P50488 with tags, fused parts or gaps): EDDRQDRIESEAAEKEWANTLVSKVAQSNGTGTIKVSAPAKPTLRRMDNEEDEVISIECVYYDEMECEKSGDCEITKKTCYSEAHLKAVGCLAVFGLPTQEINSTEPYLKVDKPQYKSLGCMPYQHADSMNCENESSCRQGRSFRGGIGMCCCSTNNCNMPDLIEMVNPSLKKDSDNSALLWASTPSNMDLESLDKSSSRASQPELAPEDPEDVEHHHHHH
Text: Preparation of type II Receptor ECD: Highly purified extracellular domain (ECD) of the type II receptor daf-4 was used in this assay. The ECD of the daf-4 receptor was cloned and vectors (pCMV5 expression vectors, daf-4 sequence including the mammalian consensus start site and the hexa-histidine sequence tag) are constructed for the expression of this molecule in mammalian cells. In this construct, the ECD has been linked to a hexa-Histadine sequence tag for subsequent purification and detection. The transfected DHFR(−) CHO cell line PJ511.9.8 has been used for the daf-4 expression as outlined below. This cloning method can also be utilized with other bone morphogenetic proteins.
Purification of daf-4 ECD: A purification protocol to process large volumes of conditioned media (3.5 L/week) was developed. The procedure involves initial isolation of daf-4 ECD by using Talon (Pharmacia Tech.) Immobilized metal affinity column. As daf-4 ECD protein is linked to a hexa-His sequence, the protein is bound to the metal affinity column and is subsequently eluted by imidazoic ([…]) containing buffer. […] The purified preparation was analyzed by reversed phase HPLC. […]
HTS assay procedure: BMP-7 binding activity was determined by a rapid solid-phase assay using ^125I-labeled BMP-7 as ligand and highly purified ECD of daf-4 as type II receptor. […]

[4] = target: T2, daf-4 ECD (Caenorhabditis elegans, UniProt P50488); assay: BMP binding to purified daf-4 ECD (ligand blot, Scatchard analysis); set-up: species or system C. elegans
T2 construct: 1 includes additional portions on the N and C terminus; made in house; host or cells: transfected DHFR(-) CHO cell line PJ511.9.8, purified from conditioned medium
T2 sequence (P50488 with tags, fused parts or gaps): T1 sequence (P50488 with tags, fused parts or gaps)
Text: A novel ligand-blot technique was developed to evaluate the binding of BMP-7 to the purified daf-4 ECD.

[5] = lower peptide concentrations (0.6-60 μM)

Row | Substance | effect on basal cell responsiveness (basal alkaline phosphatase activity) ([1]; peptide alone) | behaviour of peptide on BMP-7 induced cell responsiveness ([1]; peptide together with BMP-7) | IC50 [1] | other results
1 | H-1: CAFPLNSYMNATNHAIVQTLVHFINPETVPKC SEQ ID NO 5; heel peptide, cyclized (disulfide 1-32 (inferred); listed as Homo sapiens) [Peptide H-1] | effective only at very high concentrations | weak antagonist |  | concentrations required to inhibit the BMP-7 induced cell response ([1]; peptide together with BMP-7): 44 to 220 µM
2 | CFRDLGWQDWIIAPC, SEQ I.D NO. 4; 15 residue peptide cyclized at the ends (disulfide 1-15 (inferred); listed as Homo sapiens) [Peptide F1-2] | weakly inhibiting | antagonist | 10 µM | activity in radioligand receptor assay [2]: relatively weak activity; concentration required to inhibit the binding of 125I-labeled BMP-7 to the receptor ([2]; ROS cell plasma membranes): 179 µM
3 | CELYVSFRDLGWQDWIIAPEGYAAYC, SEQ I.D NO. 3; BMP-7 finger 1 peptide with cyclized ends (disulfide 1-26 (inferred); listed as Homo sapiens) [Peptide F1-1] |  | antagonist | 20 µM | peptide concentration effective to inhibit basal cellular responsiveness ([1]; peptide alone): 52 to 260 µM
4 | CYFDDSSNVICKKYRS, SEQ I.D NO. 9; 11 residue loop with 5 residue C-terminal extension (disulfide 1-11; listed as Homo sapiens) [Peptide F2-3] | no significant effect | agonistic |  | percent increase in BMP-7 response (relative to the absence of peptide) ([1]; peptide 0.01 μM, sub-maximal BMP-7, P<0.001): 53%; percent increase in BMP-7 response (relative to the absence of peptide) ([1]; peptide 0.1 μM, sub-maximal BMP-7, P=0.007): 54%; percent increase in BMP-7 response (relative to the absence of peptide) ([1]; peptide 1 μM, sub-maximal BMP-7, P=0.01): 48%; inhibition of 125I-labeled BMP-7 binding to the ECD of daf-4 receptor [3]: 75%
5 | F2-2c: CIVNSSDDFYC SEQ I.D NO. 8; control peptide, residues of F2-2 in reverse order (disulfide 1-11 (inferred); listed as Homo sapiens) [Peptide F2-2c, reference compound] | no effect | no effect |  | activity in radioligand receptor assay [2]: inactive
6 | CYFDDSSNVIC SEQ I.D NO. 7; 9 residues, ends cyclized (disulfide 1-11 (inferred); listed as Homo sapiens) [Peptide F2-2] |  |  |  | effect on responsiveness to BMP-7 at higher concentrations ([1]; higher peptide concentrations (above 0.6-60 μM)): inhibited; behaviour of peptide on BMP-7 induced cell responsiveness at lower concentrations [1, 5]: weak agonist; potentiation of BMP-7 induced cell responsiveness [1, 5]: 20%
7 | CCFINPETVCC, SEQ I.D NO. 6; cyclized (disulfide (positions not given here); also: cyclized (mode not given here); listed as Homo sapiens) [Peptide H-2C] | inhibiting | antagonist | 5 µM | effect on binding of 125I-labeled BMP-7 to the receptor ([2]; peptide at 8 μM): potentiated
8 | CLNAISVLYFDDSSNVILKKYRNMVVRC, SEQ ID NO. 10; cyclized (disulfide 1-28 (inferred); listed as Homo sapiens) [Peptide F2-1] | effectively inhibited | effectively inhibited | 8 µM | 
9 | BMP-4: bone morphogenetic protein |  |  |  | binding to extracellular domain of daf-4 [4]: readily binds

— US20110081662A1, “SCREENING METHODS FOR BONE MORPHOGENETIC MIMETICS” (THRASOS THERAPEUTICS, INC., priority 2000, published 2011)
